The text below walks through data of patent US8912329B2 (priority 2009, dated 2014).

One test concerns the target EthR-VP16 (Mycobacterium bovis, UniProt Q7TVI1). In words: cell-based. Set-up: species or system M. bovis. The following applies: 48 h, read-out: % EthR activity (w/o = 100%); ± std. dev. of the mean (n = 3).
The subject of test [1] is Mycobacterium tuberculosis laboratory strain H37Rv. In words: Growth inhibition / drug susceptibility testing of M. tuberculosis with MGIT 960 system, compounds combined with ethionamide. The class given is cell-based. Set-up: key to growth inhibition of M. tuberculosis H37Rv (R/I/S): R: Resistance, no effect of combinatorial drug application; I: intermediate; S: sensitive.

Sequence of EthR-VP16 (Q7TVI1 whole entry, looked up): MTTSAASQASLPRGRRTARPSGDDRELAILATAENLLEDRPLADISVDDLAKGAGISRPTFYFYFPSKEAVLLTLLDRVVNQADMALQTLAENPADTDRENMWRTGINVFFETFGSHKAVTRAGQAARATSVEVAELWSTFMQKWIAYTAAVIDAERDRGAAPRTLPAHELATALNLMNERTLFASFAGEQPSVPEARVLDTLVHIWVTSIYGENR

Consider `O=C(CCc1ccccc1)N1CCC(c2ccccc2)C1` (centres unmarked) [Example 16, 3-Phenyl-1-(3-phenylpyrrolidin-1-yl)propan-1-one], for which the remaining activity at 0.5 µM at EthR-VP16 worked out at 28.3 ± 1.26%. Further, at EthR-VP16, the remaining activity at 1.5 µM was found to be 27.2 ± 0.46%. Also, the remaining activity at 3 µM on EthR-VP16 came to 19.9 ± 0.43%. The remaining activity at 6 µM on EthR-VP16 amounted to 13.5 ± 2.96%. In addition, at EthR-VP16, the remaining activity at 15 µM was 11.8 ± 2.6%. Moreover, on EthR-VP16, the remaining activity at 30 µM was found to be 11.4 ± 2.51%. Further, on EthR-VP16, the remaining activity at 60 µM was 2.82 ± 0.62%. Besides, on EthR-VP16, the remaining activity at 300 µM is 0.85 ± 0.18%. Also, the “growth inhibition of M. tuberculosis H37Rv (R/I/S)” value (“growth inhibition” below) in test [1] (Example compound 0.5 μM + ethionamide 0.16 μg/ml) was “R”; in test [1] (Example compound 0.5 μM + ethionamide 0.31 μg/ml), “R”; in test [1] (Example compound 0.5 μM + ethionamide 0.625 μg/ml), “I”; in test [1] (Example compound 0.5 μM + ethionamide 1.25 μg/ml), “S”; in test [1] (Example compound 0.5 μM + ethionamide 2.5 μg/ml) it was “S”; in test [1] (Example compound 0.5 μM + ethionamide 5 μg/ml) it was “S”. Moreover, the “growth inhibition” value in test [1] (Example compound 0.5 μM, ethionamide 0 μg/ml) is “R”; in test [1] (Example compound 1.5 μM + ethionamide 0.16 μg/ml) it was “R”; in test [1] (Example compound 1.5 μM + ethionamide 0.31 μg/ml), “I”; in test [1] (Example compound 1.5 μM + ethionamide 0.625 μg/ml), “S”; in test [1] (Example compound 1.5 μM + ethionamide 1.25 μg/ml), “S”; in test [1] (Example compound 1.5 μM + ethionamide 2.5 μg/ml), “S”. In addition, the “growth inhibition” value in test [1] (Example compound 1.5 μM + ethionamide 5 μg/ml) is “S”; in test [1] (Example compound 1.5 μM, ethionamide 0 μg/ml), “R”; in test [1] (Example compound 4.5 μM + ethionamide 0.16 μg/ml) it was “R”; in test [1] (Example compound 4.5 μM + ethionamide 0.31 μg/ml), “I”; in test [1] (Example compound 4.5 μM + ethionamide 0.625 μg/ml), “S”; in test [1] (Example compound 4.5 μM + ethionamide 1.25 μg/ml), “S”. Further, the “growth inhibition” value in test [1] (Example compound 4.5 μM + ethionamide 2.5 μg/ml) is “S”; in test [1] (Example compound 4.5 μM + ethionamide 5 μg/ml) it was “S”; in test [1] (Example compound 4.5 μM, ethionamide 0 μg/ml), “R”; in test [1] (Example compound 13.5 μM + ethionamide 0.16 μg/ml), “I”; in test [1] (Example compound 13.5 μM + ethionamide 0.31 μg/ml), “S”; in test [1] (Example compound 13.5 μM + ethionamide 0.625 μg/ml), “S”. Further, the “growth inhibition” value in test [1] (Example compound 13.5 μM + ethionamide 1.25 μg/ml) is recorded as “S”; in test [1] (Example compound 13.5 μM + ethionamide 2.5 μg/ml), “S”; in test [1] (Example compound 13.5 μM + ethionamide 5 μg/ml), “S”; in test [1] (Example compound 13.5 μM, ethionamide 0 μg/ml), “R”; in test [1] (Example compound 40.5 μM + ethionamide 0.16 μg/ml) it was “I”; in test [1] (Example compound 40.5 μM + ethionamide 0.31 μg/ml), “I”. Further, the “growth inhibition” value in test [1] (Example compound 40.5 μM + ethionamide 0.625 μg/ml) is given as “S”; in test [1] (Example compound 40.5 μM + ethionamide 1.25 μg/ml) it was “S”; in test [1] (Example compound 40.5 μM + ethionamide 2.5 μg/ml) it was “S”; in test [1] (Example compound 40.5 μM + ethionamide 5 μg/ml), “S”; in test [1] (Example compound 40.5 μM, ethionamide 0 μg/ml) it was “R”. Further, the “growth inhibitory effect of compound alone on M. tuberculosis H37Rv” value in test [1] (compound alone, without ethionamide) is reported as “do not show any growth inhibitory effect”. Besides, the “growth of M. tuberculosis H37Rv in the presence of sub-inhibitory ethionamide concentrations” value in test [1] (ethionamide 0.16 and 5 μg/ml, 0.5 to 40.5 μMol compound) is reported as “dose-dependently inhibited”.

On to `O=C(CCCc1ccccc1)N1CCC1c1ccccc1` (centres unmarked) [Example 23, 4-Phenyl-1-(2-phenylazetidin-1-yl)butan-1-one], for which, on EthR-VP16, the remaining activity at 0.5 µM worked out at 96.3 ± 10%, the remaining activity at 1.5 µM was determined as 102 ± 12.3%, the remaining activity at 3 µM worked out at 101 ± 9.55% and the remaining activity at 6 µM turned out to be 90.1 ± 9.21%. For the same compound, at EthR-VP16, the remaining activity at 15 µM is 86.8 ± 5.76%, the remaining activity at 30 µM is 81.5 ± 5.22%, the remaining activity at 60 µM amounted to 49.4 ± 1.49% and the remaining activity at 300 µM was 6.18 ± 2.53%.

Take `O=C(CCCc1ccccc1)N1CC(Cc2ccccc2)C1` [Example 27, 1-(3-Benzylazetidin-1-yl)-4-phenylbutan-1-on]: on EthR-VP16, the remaining activity at 0.5 µM is 59.6 ± 2.49%, the remaining activity at 1.5 µM was 42.6 ± 1.49%, the remaining activity at 3 µM turned out to be 37.9 ± 5.47% and the remaining activity at 6 µM worked out at 31.3 ± 3.58%. Further, on EthR-VP16, the remaining activity at 15 µM was 31.7 ± 1.36%, the remaining activity at 30 µM came out at 26.3 ± 9.65%, the remaining activity at 60 µM came out at 17.5 ± 4.51% and the remaining activity at 300 µM worked out at 15.3 ± 2.79%.

In the case of `CCCCCC(=O)N1CCOC(c2ccccc2)C1` (centres unmarked) [Example 31, 1-(2-Phenylmorpholin-4-yl)hexan-1-one], at EthR-VP16, the remaining activity at 0.5 µM came to 106 ± 17.5%, the remaining activity at 1.5 µM is 103 ± 16.4%, the remaining activity at 3 µM was determined as 94.1 ± 15.9% and the remaining activity at 6 µM was 63.7 ± 5.26%. For the same compound, at EthR-VP16, the remaining activity at 15 µM was 33.2 ± 1.27%, the remaining activity at 30 µM turned out to be 25 ± 4.22%, the remaining activity at 60 µM came to 17.8 ± 4.01% and the remaining activity at 300 µM is 15 ± 2.11%.

On to `CCCC(=O)N1CCN(Cc2ccccc2)CC1` [Example 1, 1-(4-Benzylpiperazin-1-yl)butan-1-one], for which, at EthR-VP16, the remaining activity at 0.5 µM came out at 72.5 ± 1.65%, the remaining activity at 1.5 µM was 76.5 ± 17.5%, the remaining activity at 3 µM amounted to 68.7 ± 2.79% and the remaining activity at 6 µM stood at 73.2 ± 1.19%. Besides, on EthR-VP16, the remaining activity at 15 µM stood at 72.6 ± 6.82%, the remaining activity at 30 µM was 64.1 ± 14%, the remaining activity at 60 µM stood at 53.1 ± 7.78% and the remaining activity at 300 µM worked out at 27.3 ± 5.27%.

Consider `O=C(Cc1cccs1)N1CCOC(c2ccccc2)C1` (centres unmarked) [Example 14, 1-(2-Phenylmorpholin-4-yl)-2-(thiophen-2-yl)ethan-1-one], for which, at EthR-VP16, the remaining activity at 0.5 µM worked out at 106 ± 19.8%, the remaining activity at 1.5 µM is 86.2 ± 1.36%, the remaining activity at 3 µM came to 85.9 ± 6.26% and the remaining activity at 6 µM is 74.8 ± 1.22%. Also, at EthR-VP16, the remaining activity at 15 µM worked out at 60.5 ± 1.32%, the remaining activity at 30 µM is 35.4 ± 5.3%, the remaining activity at 60 µM is 25.5 ± 3.82% and the remaining activity at 300 µM was found to be 9.16 ± 1.37%.

For the compound `CCCC(=O)N1CCC(c2ccccc2)C1` (centres unmarked) [Example 13, 1-(3-Phenylpyrrolidin-1-yl)butan-1-one], at EthR-VP16, the remaining activity at 0.5 µM was 30.4 ± 3.98%, the remaining activity at 1.5 µM amounted to 17.7 ± 2.01%, the remaining activity at 3 µM was found to be 11 ± 2.88% and the remaining activity at 6 µM came to 10.9 ± 1.45%. At EthR-VP16, the remaining activity at 15 µM was 12.4 ± 0.99%, the remaining activity at 30 µM came out at 14.5 ± 7.8%, the remaining activity at 60 µM stood at 10.8 ± 1.34% and the remaining activity at 300 µM came out at 12 ± 1.27%.

Take `O=C(CCc1ccccc1)N1CC(Cc2ccccc2)C1` [Example 25, 1-(3-Benzylazetidin-1-yl)-3-phenylpropan-1-one]: on EthR-VP16, the remaining activity at 0.5 µM came out at 86.8 ± 9.98%, the remaining activity at 1.5 µM was found to be 88.5 ± 8.12%, the remaining activity at 3 µM came out at 69.5 ± 4.27% and the remaining activity at 6 µM was found to be 48 ± 5.86%. For the same compound, on EthR-VP16, the remaining activity at 15 µM was 28.7 ± 3.22%, the remaining activity at 30 µM was determined as 19.5 ± 0.89%, the remaining activity at 60 µM came out at 14.2 ± 3.23% and the remaining activity at 300 µM turned out to be 6.03 ± 2%.

For the compound `O=C(CCc1ccccc1)N1CCC1c1ccccc1` (centres unmarked) [Example 22, 3-Phenyl-1-(2-phenylazetidin-1-yl)propan-1-one], at EthR-VP16, the remaining activity at 0.5 µM amounted to 90 ± 15.2%, the remaining activity at 1.5 µM turned out to be 106 ± 10%, the remaining activity at 3 µM was 97.4 ± 5.01% and the remaining activity at 6 µM worked out at 90.2 ± 8.48%. Further, at EthR-VP16, the remaining activity at 15 µM was found to be 77.8 ± 4.33%, the remaining activity at 30 µM is 59.4 ± 4.5%, the remaining activity at 60 µM was determined as 33.2 ± 2.46% and the remaining activity at 300 µM worked out at 6.34 ± 0.89%.

Take `CCCCC(=O)N1CCN(Cc2ccccc2)CC1` [Example 28, 1-(4-Benzylpiperazin-1-yl)pentan-1-one]: on EthR-VP16, the remaining activity at 0.5 µM worked out at 97.1 ± 9.36%, the remaining activity at 1.5 µM stood at 81.5 ± 3.01%, the remaining activity at 3 µM amounted to 59.4 ± 4.9% and the remaining activity at 6 µM was determined as 46.2 ± 2.55%. At EthR-VP16, the remaining activity at 15 µM came out at 38.3 ± 2.21%, the remaining activity at 30 µM came out at 18.5 ± 3.64%, the remaining activity at 60 µM is 11.7 ± 2.77% and the remaining activity at 300 µM was determined as 10.2 ± 1.94%.

Regarding `CCCC(=O)N1CCOC(c2ccccc2)C1` (centres unmarked) [Example 3, 1-(2-Phenylmorpholino)butan-1-one], at EthR-VP16, the remaining activity at 0.5 µM was 85.5 ± 2.57%, the remaining activity at 1.5 µM turned out to be 96.82 ± 0.67%, the remaining activity at 3 µM was 84.4 ± 6.37% and the remaining activity at 6 µM worked out at 90.1 ± 6.44%. Besides, on EthR-VP16, the remaining activity at 15 µM worked out at 98.4 ± 4.51%, the remaining activity at 30 µM turned out to be 86.5 ± 4.1%, the remaining activity at 60 µM was 81.9 ± 8.6% and the remaining activity at 300 µM stood at 40.2 ± 4.65%.
